Measured values from ChEMBL document CHEMBL1151902, “Discovery and SAR of cinnolines/quinolines as liver X receptor (LXR) agonists with binding selectivity for LXRbeta” (Bioorg Med Chem, 2009).
Converted amounts (≈) assume the structure as drawn.

Legend:
[1] = Aqueous solubility of the compound; type: physicochemical; details: buffer
[2] = Metabolic stability in mouse liver microsomes assessed as half life; type: ADME, Microsome

- solubility [1]: 2 µg/mL (≈ 3.82 µM)
- half-life [2]: < 5 min
SMILES: Cn1ccc2cccc(COc3cccc(-c4c(Cc5ccccc5)nnc5c(C(F)(F)F)cccc45)c3)c21
